In ChEMBL document CHEMBL3885881, “DrugMatrix”:

Species: Rattus norvegicus
Assay: DrugMatrix - Regimen: Daily Repeat
Type: toxicity, organism-based, Sprague-Dawley
Set-up: regimen Daily Repeat, gender Male, age 6-8 weeks
Conditions: in vivo, po, route oral GAVAGE, vehicle .5 % CMC; for ABSOLUTE BASOPHIL / ABSOLUTE EOSINOPHIL / ABSOLUTE LYMPHOCYTE / ABSOLUTE MONOCYTE / ABSOLUTE SEGMENTED NEUTROPHIL / BASOPHIL / EOSINOPHIL / ERYTHROCYTE COUNT / HEMATOCRIT / HEMOGLOBIN / LEUKOCYTE COUNT / LYMPHOCYTE / MEAN CORPUSCULAR HEMOGLOBIN / MEAN CORPUSCULAR HEMOGLOBIN CONCENTRATION / MEAN CORPUSCULAR VOLUME / MONOCYTE / NEUTROPHIL / NUCLEATED RED BLOOD CELLS / PLATELET COUNT: tissue Blood; for ALANINE AMINOTRANSFERASE / ALBUMIN / ALKALINE PHOSPHATASE / ASPARTATE AMINOTRANSFERASE / BLOOD UREA NITROGEN / CARBON DIOXIDE / CHLORIDE / CHOLESTEROL / CREATINE PHOSPHOKINASE / CREATININE / GLUCOSE / LACTATE DEHYDROGENASE / LIPASE / PHOSPHORUS / POTASSIUM / SODIUM / TOTAL BILIRUBIN / TOTAL PROTEIN / URIC ACID: tissue Plasma
[1] = 22 mg/kg, 72 h, dose level High, time 3 day
[2] = 22 mg/kg, 120 h, dose level High, time 5 day
[3] = […], 72 h, dose 2.2 mg/Kg, dose level Low, time 3 day
[4] = […], 120 h, dose 2.2 mg/Kg, dose level Low, time 5 day

For Cc1cc(C(C#N)c2ccc(Cl)cc2)c(Cl)cc1NC(=O)c1cc(I)cc(I)c1O (configuration not stated) [CLOSANTEL], the “ABSOLUTE BASOPHIL” value [1] was 0 CELLS/uL, the “ABSOLUTE EOSINOPHIL” value [1] was 101.33 CELLS/uL and the “ABSOLUTE LYMPHOCYTE” value [1] was 16742.67 CELLS/uL. The “ABSOLUTE MONOCYTE” value [1] was 54 CELLS/uL, the “ABSOLUTE SEGMENTED NEUTROPHIL” value [1] was 802 CELLS/uL and the BASOPHIL [1] was 0%. The EOSINOPHIL [1] was 0.67%, the “ERYTHROCYTE COUNT” value [1] was 4.94 x10E6/uL and the HEMATOCRIT [1] was 31.43%. The HEMOGLOBIN [1] was 12.7 G/DL, the “LEUKOCYTE COUNT” value [1] was 17.7 x10E3/uL and the LYMPHOCYTE [1] was 94.67%. For the same compound, the “MEAN CORPUSCULAR HEMOGLOBIN” value [1] was 25.77 pg, the “MEAN CORPUSCULAR HEMOGLOBIN CONCENTRATION” value [1] was 40.4 G/DL and the “MEAN CORPUSCULAR VOLUME” value [1] was 63.77 fL. For the same compound, the MONOCYTE [1] was 0.33%, the NEUTROPHIL [1] was 4.33% and the “NUCLEATED RED BLOOD CELLS” value [1] was 0 /100WBC. For the same compound, the “PLATELET COUNT” value [1] was 1110.67 x10E3/uL, the “ALANINE AMINOTRANSFERASE” value [1] was 49.67 u/L and the ALBUMIN [1] was 4.27 G/DL. The “ALKALINE PHOSPHATASE” value [1] was 612.33 u/L, the “ASPARTATE AMINOTRANSFERASE” value [1] was 122.67 u/L and the “BLOOD UREA NITROGEN” value [1] was 16.33 mg/dL. The “CARBON DIOXIDE” value [1] was 27.67 mmol/L, the CHLORIDE [1] was 103.67 MEQ/L and the CHOLESTEROL [1] was 73 mg/dL. The “CREATINE PHOSPHOKINASE” value [1] was 369 u/L, the CREATININE [1] was 0.19 mg/dL and the GLUCOSE [1] was 171.33 mg/dL. The “LACTATE DEHYDROGENASE” value [1] was 163.67 u/L, the LIPASE [1] was 9 u/L and the PHOSPHORUS [1] was 12.43 mg/dL. For the same compound, the POTASSIUM [1] was 6.8 MEQ/L, the SODIUM [1] was 145.83 MEQ/L and the “TOTAL BILIRUBIN” value [1] was 0.2 mg/dL. The “TOTAL PROTEIN” value [1] was 5.73 G/DL, the “URIC ACID” value [1] was 2.13 mg/dL and the “ABSOLUTE BASOPHIL” value [2] was 0 CELLS/uL. For the same compound, the “ABSOLUTE EOSINOPHIL” value [2] was 0 CELLS/uL, the “ABSOLUTE LYMPHOCYTE” value [2] was 18393.33 CELLS/uL and the “ABSOLUTE MONOCYTE” value [2] was 203.33 CELLS/uL. The “ABSOLUTE SEGMENTED NEUTROPHIL” value [2] was 2403.33 CELLS/uL, the BASOPHIL [2] was 0% and the EOSINOPHIL [2] was 0%. For the same compound, the “ERYTHROCYTE COUNT” value [2] was 5.7 x10E6/uL, the HEMATOCRIT [2] was 36.13% and the HEMOGLOBIN [2] was 14.47 G/DL. The “LEUKOCYTE COUNT” value [2] was 21 x10E3/uL, the LYMPHOCYTE [2] was 87.33% and the “MEAN CORPUSCULAR HEMOGLOBIN” value [2] was 25.4 pg. The “MEAN CORPUSCULAR HEMOGLOBIN CONCENTRATION” value [2] was 40.03 G/DL, the “MEAN CORPUSCULAR VOLUME” value [2] was 63.4 fL and the MONOCYTE [2] was 1%. The NEUTROPHIL [2] was 11.67%, the “NUCLEATED RED BLOOD CELLS” value [2] was 0.33 /100WBC and the “PLATELET COUNT” value [2] was 1280.33 x10E3/uL. The “ALANINE AMINOTRANSFERASE” value [2] was 76 u/L, the ALBUMIN [2] was 4.63 G/DL and the “ALKALINE PHOSPHATASE” value [2] was 586.33 u/L. The “ASPARTATE AMINOTRANSFERASE” value [2] was 169.33 u/L, the “BLOOD UREA NITROGEN” value [2] was 25 mg/dL and the “CARBON DIOXIDE” value [2] was 32 mmol/L. For the same compound, the CHLORIDE [2] was 101.67 MEQ/L, the CHOLESTEROL [2] was 84 mg/dL and the “CREATINE PHOSPHOKINASE” value [2] was 365.33 u/L. For the same compound, the CREATININE [2] was 0.32 mg/dL, the GLUCOSE [2] was 141.67 mg/dL and the “LACTATE DEHYDROGENASE” value [2] was 335.67 u/L. It also gave an LIPASE [2] of 11.67 u/L, a PHOSPHORUS [2] of 11.47 mg/dL and a POTASSIUM [2] of 7.16 MEQ/L. The SODIUM [2] was 143.5 MEQ/L, the “TOTAL BILIRUBIN” value [2] was 0.2 mg/dL and the “TOTAL PROTEIN” value [2] was 6 G/DL. For the same compound, the “URIC ACID” value [2] was 1.9 mg/dL, the “ABSOLUTE BASOPHIL” value [3] was 0 CELLS/uL and the “ABSOLUTE EOSINOPHIL” value [3] was 27.33 CELLS/uL. For the same compound, the “ABSOLUTE LYMPHOCYTE” value [3] was 7010.67 CELLS/uL, the “ABSOLUTE MONOCYTE” value [3] was 50 CELLS/uL and the “ABSOLUTE SEGMENTED NEUTROPHIL” value [3] was 645.33 CELLS/uL. For the same compound, the BASOPHIL [3] was 0%, the EOSINOPHIL [3] was 0.33% and the “ERYTHROCYTE COUNT” value [3] was 5.2 x10E6/uL. The HEMATOCRIT [3] was 33.97%, the HEMOGLOBIN [3] was 13.53 G/DL and the “LEUKOCYTE COUNT” value [3] was 7.73 x10E3/uL. For the same compound, the LYMPHOCYTE [3] was 90.33%, the “MEAN CORPUSCULAR HEMOGLOBIN” value [3] was 26.1 pg and the “MEAN CORPUSCULAR HEMOGLOBIN CONCENTRATION” value [3] was 39.83 G/DL. For the same compound, the “MEAN CORPUSCULAR VOLUME” value [3] was 65.4 fL, the MONOCYTE [3] was 0.67% and the NEUTROPHIL [3] was 8.67%. For the same compound, the “NUCLEATED RED BLOOD CELLS” value [3] was 0 /100WBC, the “PLATELET COUNT” value [3] was 1123.67 x10E3/uL and the “ALANINE AMINOTRANSFERASE” value [3] was 51 u/L. The ALBUMIN [3] was 4.37 G/DL, the “ALKALINE PHOSPHATASE” value [3] was 453.33 u/L and the “ASPARTATE AMINOTRANSFERASE” value [3] was 101.67 u/L. The “BLOOD UREA NITROGEN” value [3] was 17.33 mg/dL, the “CARBON DIOXIDE” value [3] was 35.33 mmol/L and the CHLORIDE [3] was 98.67 MEQ/L. The CHOLESTEROL [3] was 78.67 mg/dL, the “CREATINE PHOSPHOKINASE” value [3] was 529.33 u/L and the CREATININE [3] was 0.26 mg/dL. The GLUCOSE [3] was 127 mg/dL, the “LACTATE DEHYDROGENASE” value [3] was 156.67 u/L and the LIPASE [3] was 9.67 u/L. The PHOSPHORUS [3] was 11.27 mg/dL, the POTASSIUM [3] was 6.78 MEQ/L and the SODIUM [3] was 144.6 MEQ/L. The “TOTAL BILIRUBIN” value [3] was 0.17 mg/dL, the “TOTAL PROTEIN” value [3] was 6.27 G/DL and the “URIC ACID” value [3] was 0.93 mg/dL. The “ABSOLUTE BASOPHIL” value [4] was 0 CELLS/uL, the “ABSOLUTE EOSINOPHIL” value [4] was 0 CELLS/uL and the “ABSOLUTE LYMPHOCYTE” value [4] was 9886.33 CELLS/uL. The “ABSOLUTE MONOCYTE” value [4] was 68.67 CELLS/uL, the “ABSOLUTE SEGMENTED NEUTROPHIL” value [4] was 945 CELLS/uL and the BASOPHIL [4] was 0%. For the same compound, the EOSINOPHIL [4] was 0%, the “ERYTHROCYTE COUNT” value [4] was 5.61 x10E6/uL and the HEMATOCRIT [4] was 35.17%. The HEMOGLOBIN [4] was 14 G/DL, the “LEUKOCYTE COUNT” value [4] was 10.9 x10E3/uL and the LYMPHOCYTE [4] was 90.33%. For the same compound, the “MEAN CORPUSCULAR HEMOGLOBIN” value [4] was 24.93 pg, the “MEAN CORPUSCULAR HEMOGLOBIN CONCENTRATION” value [4] was 39.83 G/DL and the “MEAN CORPUSCULAR VOLUME” value [4] was 62.63 fL. The MONOCYTE [4] was 0.67%, the NEUTROPHIL [4] was 9% and the “NUCLEATED RED BLOOD CELLS” value [4] was 0 /100WBC. The “PLATELET COUNT” value [4] was 1205.67 x10E3/uL, the “ALANINE AMINOTRANSFERASE” value [4] was 49 u/L and the ALBUMIN [4] was 4.43 G/DL. The “ALKALINE PHOSPHATASE” value [4] was 427.33 u/L, the “ASPARTATE AMINOTRANSFERASE” value [4] was 75 u/L and the “BLOOD UREA NITROGEN” value [4] was 18 mg/dL. For the same compound, the “CARBON DIOXIDE” value [4] was 29.67 mmol/L, the CHLORIDE [4] was 103 MEQ/L and the CHOLESTEROL [4] was 72.33 mg/dL. The “CREATINE PHOSPHOKINASE” value [4] was 164.33 u/L, the CREATININE [4] was 0.18 mg/dL and the GLUCOSE [4] was 146.67 mg/dL. The “LACTATE DEHYDROGENASE” value [4] was 113.67 u/L, the LIPASE [4] was 8.33 u/L and the PHOSPHORUS [4] was 13.67 mg/dL. The POTASSIUM [4] was 7.15 MEQ/L, the SODIUM [4] was 146.83 MEQ/L and the “TOTAL BILIRUBIN” value [4] was 0.23 mg/dL. For the same compound, the “TOTAL PROTEIN” value [4] was 6.6 G/DL and the “URIC ACID” value [4] was 1.7 mg/dL.
